# From PubChem BioAssay AID330 (DTP/NCI, 2004)
# Several values for one entry are separate records, joined by “and”; a condition that tells them apart may be missing. Equal entries are not always repeated. Toxic doses and inconclusive results are not listed.
# Test system: P388 leukemia ip, CD2F1 mice, survival T/C
# Test: NCI In Vivo Anticancer Drug Screen. Data for tumor model P388 Leukemia (intraperitoneal) in CD2F1 (CDF1) mice
# Conditions: endpoint: median survival time, higher = longer survival
# Summary of the method: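 Mice carrying the transplanted tumor received test compound or vehicle. Survival was recorded in each group, and the value is the treated-group measurement divided by that of the vehicle-treated control group.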
# [1] = dose: 12.5 mg/kg/injection, schedule: Q04DX003 (ip), vehicle: saline with Tween-80
# [2] = dose: 25.0 mg/kg/injection, schedule: Q04DX003 (ip), vehicle: saline with Tween-80
# [3] = dose: 50.0 mg/kg/injection, schedule: Q04DX003 (ip), vehicle: saline with Tween-80
# [4] = dose: 100.0 mg/kg/injection, schedule: Q01DX001 (ip), vehicle: saline with Tween-80
# [5] = dose: 200.0 mg/kg/injection, schedule: Q01DX001 (ip), vehicle: saline with Tween-80
# [6] = dose: 60.0 mg/kg/injection, schedule: Q01DX005 (ip), vehicle: Klucel (hydroxypropylcellulose) (HPC)
# [7] = dose: 120.0 mg/kg/injection, schedule: Q01DX005 (ip), vehicle: Klucel (hydroxypropylcellulose) (HPC)
# [8] = dose: 240.0 mg/kg/injection, schedule: Q01DX005 (ip), vehicle: Klucel (hydroxypropylcellulose) (HPC)
# [9] = dose: 12.5 mg/kg/injection, schedule: Q04DX002 (ip), vehicle: saline with Tween-80
# [10] = dose: 25.0 mg/kg/injection, schedule: Q04DX002 (ip), vehicle: saline with Tween-80
# [11] = dose: 50.0 mg/kg/injection, schedule: Q04DX002 (ip), vehicle: saline with Tween-80
smiles,measurement,setting,value
C/C=C/C/C=C/CCC(=O)C1OC1C(N)=O (configuration not stated),T/C,"dose: 8.0 mg/kg/injection, schedule: Q01DX009 (ip), vehicle: Klucel (hydroxypropylcellulose) (HPC)",93 % of control
same,T/C,"dose: 16.0 mg/kg/injection, schedule: Q01DX009 (ip), vehicle: Klucel (hydroxypropylcellulose) (HPC)",93 % of control
same,T/C,"dose: 32.0 mg/kg/injection, schedule: Q01DX009 (ip), vehicle: Klucel (hydroxypropylcellulose) (HPC)",102 % of control
same,T/C,"dose: 64.0 mg/kg/injection, schedule: Q01DX009 (ip), vehicle: Klucel (hydroxypropylcellulose) (HPC)",93 % of control
CC(C)N(C(C)C)P1N(C(C)(C)C)N=NN1C(C)(C)C,T/C,"dose: 12.5 mg/kg/injection, schedule: Q01DX005 (ip), vehicle: Klucel (hydroxypropylcellulose) (HPC)",102 % of control
same,T/C,"dose: 25.0 mg/kg/injection, schedule: Q01DX005 (ip), vehicle: Klucel (hydroxypropylcellulose) (HPC)",100 % of control
same,T/C,"dose: 50.0 mg/kg/injection, schedule: Q01DX005 (ip), vehicle: Klucel (hydroxypropylcellulose) (HPC)",102 % of control and 107 % of control
COCCCN=C(N)c1ccc(NC(=O)c2ccc(C(=O)Nc3ccc(C(N)=NCCCOC)cc3)cc2)cc1,T/C,"dose: 1.65 mg/kg/injection, schedule: Q01DX009 (ip), vehicle: saline with Tween-80",154 % of control
same,T/C,"dose: 2.5 mg/kg/injection, schedule: Q01DX009 (ip), vehicle: saline with Tween-80",154 % of control
same,T/C,"dose: 3.75 mg/kg/injection, schedule: Q01DX009 (ip), vehicle: saline with Tween-80",195 % of control
same,T/C,"dose: 5.63 mg/kg/injection, schedule: Q01DX009 (ip), vehicle: saline with Tween-80",227 % of control
same,T/C,"dose: 6.6 mg/kg/injection, schedule: Q04DX003 (ip), vehicle: saline with Tween-80",155 % of control
same,T/C,"dose: 10.0 mg/kg/injection, schedule: Q04DX003 (ip), vehicle: saline with Tween-80",150 % of control
same,T/C,[1],177 % of control
same,T/C,"dose: 15.0 mg/kg/injection, schedule: Q04DX003 (ip), vehicle: saline with Tween-80",200 % of control
same,T/C,[2],200 % of control
same,T/C,[3],90 % of control
O=c1oc(-c2ccccc2)nnc1-c1ccccc1,T/C,"dose: 50.0 mg/kg/injection, schedule: Q01DX009 (ip), vehicle: Klucel (hydroxypropylcellulose) (HPC)",100 % of control
same,T/C,"dose: 100.0 mg/kg/injection, schedule: Q01DX009 (ip), vehicle: Klucel (hydroxypropylcellulose) (HPC)",101 % of control
same,T/C,"dose: 200.0 mg/kg/injection, schedule: Q01DX009 (ip), vehicle: Klucel (hydroxypropylcellulose) (HPC)",107 % of control
CCc1ccc(O)c(CN2CCN(Cc3cc(CC)ccc3O)CC2)c1,T/C,"dose: 15.0 mg/kg/injection, schedule: Q01DX005 (ip), vehicle: saline with Tween-80",89 % of control
same,T/C,"dose: 30.0 mg/kg/injection, schedule: Q01DX005 (ip), vehicle: saline with Tween-80",86 % of control
CCOC(=O)C(C)(C(=O)c1ccccc1)C(=O)C(C)(C)C (configuration not stated),T/C,"dose: 75.0 mg/kg/injection, schedule: Q01DX009 (ip), vehicle: saline with Tween-80",107 % of control
same,T/C,"dose: 150.0 mg/kg/injection, schedule: Q01DX009 (ip), vehicle: saline with Tween-80",103 % of control
same,T/C,"dose: 300.0 mg/kg/injection, schedule: Q01DX009 (ip), vehicle: saline with Tween-80",115 % of control
CC[PH+](CC)CC.[Cl][Au],T/C,"dose: 1.25 mg/kg/injection, schedule: Q01DX009 (ip), vehicle: Klucel (hydroxypropylcellulose) (HPC)",100 % of control
same,T/C,"dose: 2.5 mg/kg/injection, schedule: Q01DX009 (ip), vehicle: Klucel (hydroxypropylcellulose) (HPC)",99 % of control and 121 % of control
same,T/C,"dose: 5.0 mg/kg/injection, schedule: Q01DX009 (ip), vehicle: Klucel (hydroxypropylcellulose) (HPC)",114 % of control (2×) and 123 % of control
same,T/C,"dose: 10.0 mg/kg/injection, schedule: Q01DX009 (ip), vehicle: Klucel (hydroxypropylcellulose) (HPC)",124 % of control
COC(=O)C#CCO,T/C,"dose: 6.25 mg/kg/injection, schedule: Q01DX009 (ip), vehicle: water",103 % of control
same,T/C,"dose: 12.5 mg/kg/injection, schedule: Q01DX009 (ip), vehicle: water",112 % of control and 94 % of control
same,T/C,"dose: 25.0 mg/kg/injection, schedule: Q01DX009 (ip), vehicle: water",112 % of control and 120 % of control
same,T/C,"dose: 50.0 mg/kg/injection, schedule: Q01DX009 (ip), vehicle: water",112 % of control and 122 % of control
COC(=O)C(C(=O)OC)=S1C(Cl)=CC=C1Cl,T/C,"dose: 100.0 mg/kg/injection, schedule: Q04DX003 (ip), vehicle: saline",108 % of control
same,T/C,"dose: 200.0 mg/kg/injection, schedule: Q04DX003 (ip), vehicle: saline",104 % of control
same,T/C,"dose: 400.0 mg/kg/injection, schedule: Q04DX003 (ip), vehicle: saline",106 % of control
CC(CN(C)C)CN1c2ccccc2Sc2ccccc21 (configuration not stated),T/C,[1],112 % of control
same,T/C,[2],115 % of control
same,T/C,"dose: 33.0 mg/kg/injection, schedule: Q04DX003 (ip), vehicle: saline with Tween-80",123 % of control
same,T/C,[3],117 % of control
CCCCCc1cc(O)c2c3c(c(=O)oc2c1)CP(=O)(c1ccccc1)CC3 (configuration not stated),T/C,[4],102 % of control
same,T/C,[5],98 % of control
same,T/C,"dose: 400.0 mg/kg/injection, schedule: Q01DX001 (ip), vehicle: saline with Tween-80",90 % of control
COc1ccc(/C=C/C2C(C#N)(C#N)C(OC)(OC)C2(OC)OC)cc1 (configuration not stated),T/C,[6],101 % of control
same,T/C,[7],102 % of control
same,T/C,[8],98 % of control
C[C@H](CCC(=O)O)[C@H]1CC[C@H]2[C@@H]3[C@H](O)C[C@@H]4C[C@H](O)CC[C@]4(C)[C@H]3C[C@H](O)[C@]12C (tested in a mixture with another compound),T/C,"dose: 75.0 mg/kg/injection, schedule: Q01DX009 (ip), vehicle: saline sonified",104 % of control
same,T/C,"dose: 300.0 mg/kg/injection, schedule: Q01DX009 (ip), vehicle: saline sonified",163 % of control
CN1C(=O)N(C)N(Cc2ccccc2)C(=O)N1Cc1ccccc1,T/C,[6],97 % of control
same,T/C,[7],100 % of control
same,T/C,[8],96 % of control
O=C1CC2C(CC3OC(=O)C4C3C23COC4(O)C(O)C3)c2occc21 (configuration not stated),T/C,[4],104 % of control
same,T/C,[5],101 % of control
CCCOC(=O)c1ccc(NC(=O)Nc2ccc(C(=O)OCC)cc2)cc1,T/C,[6],87 % of control
same,T/C,[7],90 % of control
same,T/C,[8],88 % of control
CC/C(=N/N(C)C)C(=O)O,T/C,"dose: 60.0 mg/kg/injection, schedule: Q01DX005 (ip), vehicle: saline",102 % of control
same,T/C,"dose: 120.0 mg/kg/injection, schedule: Q01DX005 (ip), vehicle: saline",105 % of control
same,T/C,"dose: 240.0 mg/kg/injection, schedule: Q01DX005 (ip), vehicle: saline",98 % of control
CCOC(=O)c1ccc2c(c1)C(C)(SC)C(=O)N2 (configuration not stated),T/C,"dose: 25.0 mg/kg/injection, schedule: Q01DX009 (ip), vehicle: saline with Tween-80",96 % of control
same,T/C,"dose: 50.0 mg/kg/injection, schedule: Q01DX009 (ip), vehicle: saline with Tween-80",100 % of control
same,T/C,"dose: 100.0 mg/kg/injection, schedule: Q01DX009 (ip), vehicle: saline with Tween-80",93 % of control
C=C(C)C(=O)c1ccc(C(=O)O)cc1,T/C,[9],105 % of control
same,T/C,[10],114 % of control
same,T/C,[11],122 % of control
O=S(=O)(O)c1ccc(N=Nc2c(S(=O)(=O)O)cc3cc(S(=O)(=O)O)cc(O)c3c2O)cc1,T/C,"dose: 50.0 mg/kg/injection, schedule: Q01DX009 (ip), vehicle: saline",93 % of control
same,T/C,"dose: 100.0 mg/kg/injection, schedule: Q01DX009 (ip), vehicle: saline",99 % of control
same,T/C,"dose: 200.0 mg/kg/injection, schedule: Q01DX009 (ip), vehicle: saline",106 % of control
CC[n+]1ccc(C(=O)NN)cc1,T/C,[9],97 % of control
same,T/C,[10],99 % of control
same,T/C,[11],105 % of control
CSc1nc(N(C)C)c2cnn(C3CCCCO3)c2n1 (configuration not stated),T/C,"dose: 100.0 mg/kg/injection, schedule: Q04DX002 (ip), vehicle: saline with Tween-80",97 % of control
same,T/C,"dose: 200.0 mg/kg/injection, schedule: Q04DX002 (ip), vehicle: saline with Tween-80",100 % of control
same,T/C,"dose: 400.0 mg/kg/injection, schedule: Q04DX002 (ip), vehicle: saline with Tween-80",100 % of control
CSc1ccc(NC(=S)SCc2ccc(Cl)cc2)cc1Cl,T/C,"dose: 50.0 mg/kg/injection, schedule: Q01DX009 (ip), vehicle: suspension in saline",108 % of control
same,T/C,"dose: 100.0 mg/kg/injection, schedule: Q01DX009 (ip), vehicle: suspension in saline",117 % of control
same,T/C,"dose: 200.0 mg/kg/injection, schedule: Q01DX009 (ip), vehicle: suspension in saline",116 % of control
